Results published in US12589094B2, “Concomitant administration of glucocorticoid receptor modulator relacorilant and paclitaxel, a dual substrate of CYP2C8 and CYP3A4” (Corcept Therapeutics Incorporated, priority 2020, dated 2026).
Several values for one entry are separate records, joined by “and”; a condition that tells them apart may be missing. Identical values can stand only once. Entries after “also recorded” stand apart in the source; their conditions may differ.

Key:
[1] = Pharmacokinetics of nab-paclitaxel alone or with relacorilant in patients with advanced solid tumors (Study CORT125134-550); assay type: in vivo, human; settings: cancer patients; same dose administered alone as comparison
Text: The combination of relacorilant and nab-paclitaxel has been evaluated in patients with advanced solid tumors.

CYP2C8 [2] = biological target: T1, CYP2C8 (Homo sapiens, UniProt P10632); test: Clinical drug-drug interaction study in healthy volunteers: effect of relacorilant on plasma pioglitazone (CYP2C8 substrate)
T1 sequence (P10632 1-490): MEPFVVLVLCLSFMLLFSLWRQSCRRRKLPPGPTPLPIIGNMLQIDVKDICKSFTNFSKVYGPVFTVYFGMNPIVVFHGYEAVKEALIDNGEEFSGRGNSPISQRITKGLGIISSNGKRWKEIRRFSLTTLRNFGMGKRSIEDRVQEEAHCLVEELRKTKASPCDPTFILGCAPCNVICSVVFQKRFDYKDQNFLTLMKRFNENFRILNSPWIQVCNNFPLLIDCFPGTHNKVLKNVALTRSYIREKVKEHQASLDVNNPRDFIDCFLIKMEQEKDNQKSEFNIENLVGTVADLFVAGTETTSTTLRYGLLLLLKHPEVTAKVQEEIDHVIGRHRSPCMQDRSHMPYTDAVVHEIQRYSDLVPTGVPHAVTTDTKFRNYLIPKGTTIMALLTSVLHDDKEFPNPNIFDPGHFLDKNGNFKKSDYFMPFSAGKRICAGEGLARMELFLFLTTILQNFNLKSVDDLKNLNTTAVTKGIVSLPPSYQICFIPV
Experimental: An open-label, crossover study was conducted in healthy subjects to determine the effect of relacorilant on the plasma exposure of midazolam, a known substrate of CYP3A4, and pioglitazone, a known substrate of CYP2C8. A single dose of midazolam 2.5 mg was administered alone and intensive pharmacokinetic (PK) samples were collected before dosing (0 hour) and at 0.25, 0.5, 1, 1.5, 2, 4, 6, 8, 12, 16, and 24 hours post-dose. On the following day, a single dose of 15 mg of pioglitazone was administered alone and intensive PK samples were collected before dosing (0 hour) and at 0.5, 1, 1.5, 2, 2.5, 3, 4, 6, 8, 12, 18, 24, 36, 48, 60, and 72 hours post-dose. Relacorilant 350 mg was then administered once a day for 9 consecutive days. On the tenth day of once-daily relacorilant dosing, a single dose of midazolam 2.5 mg was administered in combination with relacorilant 350 mg and intensive PK samples were again collected at pre-dose though 24 hours post-dose. On the following day, a single dose of 15 mg of pioglitazone was administered in combination with relacorilant 350 mg and intensive pharmacokinetic (PK) samples were again collected at pre-dose through 72 hours post-dose. The plasma concentrations of midazolam and its metabolite, 1-OH midazolam, and pioglitazone and its metabolite, pioglitazone M4 were evaluated by validated bioanalytical assays on each of dosing occasions of midazolam or pioglitazone.

CYP3A4 [3] = biological target: T2, CYP3A4 (Homo sapiens, UniProt P08684); settings: for AUC0-tz, Ratio of Geometric LSMs (%) / AUCinf, Ratio of Geometric LSMs (%) / Cmax, Ratio of Geometric LSMs (%): 100 * Test/Reference, midazolam with 350 mg relacorilant (Day 14) vs midazolam alone (Day 1)
T2 sequence (P08684 whole entry): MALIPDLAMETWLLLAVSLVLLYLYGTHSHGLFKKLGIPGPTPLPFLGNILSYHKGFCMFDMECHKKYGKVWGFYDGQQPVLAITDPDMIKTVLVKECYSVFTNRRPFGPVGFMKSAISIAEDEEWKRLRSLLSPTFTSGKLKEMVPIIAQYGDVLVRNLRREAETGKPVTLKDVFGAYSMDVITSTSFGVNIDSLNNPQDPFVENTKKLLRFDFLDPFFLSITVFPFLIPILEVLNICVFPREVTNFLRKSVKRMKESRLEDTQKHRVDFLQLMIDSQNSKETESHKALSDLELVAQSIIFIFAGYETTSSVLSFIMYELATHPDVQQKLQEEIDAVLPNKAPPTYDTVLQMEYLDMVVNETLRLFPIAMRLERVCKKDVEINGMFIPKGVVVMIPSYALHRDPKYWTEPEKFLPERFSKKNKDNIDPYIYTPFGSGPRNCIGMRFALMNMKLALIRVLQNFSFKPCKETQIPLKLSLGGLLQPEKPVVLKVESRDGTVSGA
Experimental: (§1) An open-label, crossover study was conducted in healthy subjects to determine the effect of relacorilant on the plasma exposure of midazolam, a known substrate of CYP3A4, and pioglitazone, a known substrate of CYP2C8. A single dose of midazolam 2.5 mg was administered alone and intensive pharmacokinetic (PK) samples were collected before dosing (0 hour) and at 0.25, 0.5, 1, 1.5, 2, 4, 6, 8, 12, 16, and 24 hours post-dose. […] Relacorilant 350 mg was then administered once a day for 9 consecutive days. On the tenth day of once-daily relacorilant dosing, a single dose of midazolam 2.5 mg was administered in combination with relacorilant 350 mg and intensive PK samples were again collected at pre-dose though 24 hours post-dose.

CYP3A4 [4] = biological target: T2, CYP3A4; test: clinical; settings: in vivo, po, 2.5 mg
Experimental: as §1

CYP3A4 [5] = biological target: T2, CYP3A4; test: In vitro CYP inhibition assay, Assay 2 (5-CYP mix); assay type: in vitro ADME; parameters: from tissue; host or cells: healthy human subjects, in vivo (endogenous enzyme); settings: CYP3A4 expressed in E. coli, substrate midazolam, 10 min incubation, 37° C., pH 7.4
Experimental: In a separate assay, isoforms for CYP1A2, CYP2C9, CYP2C19, CYP2D6, and CYP3A4 heterologously expressed in E. coli and obtained from Cypex as a custom made mixture of 5 isoforms. A selective and FDA accepted substrate for each isoform was present in the reaction at a concentration around its Km.
(§2) The CYP mix and a CYP substrate cocktail were added and the tubes warmed for 3 minutes whilst mixing on a BioShake IQ (37° C., 1500 rpm). NADPH (final concentration 1 mM) was added and the mixture was incubated for 10 minutes. Methanol containing an internal standard (1 μM tolbutamide) was then added to all samples, and these were mixed and placed at −20° C. for ≥1 hour to quench the reaction and allow protein to precipitate.
All samples were centrifuged (2500×g, 20 minutes, 4° C.). […] The plate was sealed with a pre-slit silicone mat and the metabolites were analyzed by LC-MS/MS. […]
In Assay 2, the final concentration of the 5-CYP mix was 32.5 pmol/ml for each of the enzymes evaluated (i.e., CYP1A2, CYP2C9, CYP2C19, CYP2D6, and CYP3A4). […]
In Assay 2, the CYP substrate cocktail comprised the following components: CYP1A2, tacrine; CYP2C9, diclofenac; CYP2C19, (S)mephenytoin; CYP2D6, bufuralol; CYP3A4, midazolam. The metabolites measured were: CYP1A2, 1-hydroxytacrine; CYP2C9, 4′-hydroxydiclofenac; CYP2C19, 4′-hydroxymephenytoin; CYP2D6, hydroxybufuralol; CYP3A4, 1′-hydroxymidazolam. […]

CYP2C8 [6] = biological target: T1, CYP2C8; test: In vitro CYP inhibition assay, Assay 1 (3-CYP mix); assay type: in vitro ADME; parameters: from tissue; host or cells: healthy human subjects, in vivo (endogenous enzyme); settings: CYP2C8 expressed in E. coli, substrate amodiaquine, 10 min incubation, 37° C., pH 7.4
Experimental: Cytochrome P450 (CYP) isoforms CYP2B6, CYP2C8 and CYP3A5, heterologously expressed in E. coli, were obtained from Cypex and mixed to produce a 3-CYP mix. […] A selective and FDA accepted substrate for each isoform was present in the reaction at a concentration around its Km.
as §2
All samples were centrifuged (2500×g, 20 minutes, 4° C.). The supernatants were transferred to a fresh 96 well plate, compatible with an autosampler. The plate was sealed with a pre-slit silicone mat and the metabolites were analyzed by LC-MS/MS.
Control CYP inhibitors (IC50—appropriate concentration range, final assay concentration 1% DMSO) were added as a cocktail. […]
In Assay 1, the final concentration of the 3-CYP mix was 18 pmol/mL for CYP2B6 (where pmol is picomoles), 1 pmol/mL for CYP2C and 5 pmol/mL for CYP3A5. […] The metabolites measured were: CYP2B6, hydroxybupropion; CYP2C8, N-desethyl amodiaquine; CYP3A5, 1′-hydroxymidazolam. […]

[7] = 100 * Test/Reference, pioglitazone with 350 mg relacorilant (Day 15) vs pioglitazone alone (Day 2)
[8] = plasma, healthy subjects, single oral 2.5 mg midazolam hydrochloride alone, Day 1
[9] = plasma, healthy subjects, single oral 2.5 mg midazolam hydrochloride with 350 mg relacorilant, Day 14

CC(=O)O[C@H]1C(=O)[C@@]2(C)[C@H]([C@H](OC(=O)c3ccccc3)[C@]3(O)C[C@H](OC(=O)[C@H](O)[C@@H](NC(=O)c4ccccc4)c4ccccc4)C(C)=C1C3(C)C)[C@]1(OC(C)=O)CO[C@@H]1C[C@@H]2O [paclitaxel]
increase in plasma levels/exposure (AUC) when co-administered with relacorilant, relative to alone [1]: about 80%

CCc1ccc(CCOc2ccc(CC3SC(=O)NC3=O)cc2)nc1 (stereo not drawn) [Pioglitazone, pioglitazone]
AUC0-tz, Ratio of Geometric LSMs (%) (CYP2C8 [2]; [7]): 74.71%
AUCinf, Ratio of Geometric LSMs (%) (CYP2C8 [2]; [7]): 74.83%
Cmax, Ratio of Geometric LSMs (%) (CYP2C8 [2]; [7]): 77.82%
change in plasma exposure/concentration when administered with relacorilant (CYP2C8 [2]; healthy volunteers, once daily relacorilant 350 mg, pioglitazone 15 mg): no increase; also recorded: did not increase
AUC(0-inf) (CYP2C8 [2]; human, plasma, po, 15 mg): 5.41 µg·h/mL
AUC(0-t) (CYP2C8 [2]; human, plasma, po, 15 mg): 5.29 µg·h/mL
Cmax (CYP2C8 [2]; human, plasma, po, 15 mg): 0.484 µg/mL

CC(O)c1ccc(CCOc2ccc(CC3SC(=O)NC3=O)cc2)nc1 (stereo not drawn) [Pioglitazone M4]
AUC0-tz, Geometric LSM, Reference (Day 2) Treatment B (CYP2C8 [2]; human, in vivo, po, 15 mg): 10.46 µg·h/mL
AUCinf, Geometric LSM, Reference (Day 2) Treatment B (CYP2C8 [2]; human, in vivo, po, 15 mg): 12.89 µg·h/mL
Cmax, Geometric LSM, Reference (Day 2) Treatment B (CYP2C8 [2]; human, in vivo, po, 15 mg): 0.2373 µg/mL

OCc1ncc2n1-c1ccc(Cl)cc1C(c1ccccc1F)=NC2 [1-OH midazolam]
AUC0-tz, Ratio of Geometric LSMs (%) (CYP3A4 [3]): 796.64%
AUCinf, Ratio of Geometric LSMs (%) (CYP3A4 [3]): 814.51%
Cmax, Ratio of Geometric LSMs (%) (CYP3A4 [3]): 164.86%
AUC0-tz, Geometric LSM, Reference (Day 1) Treatment A (CYP3A4 [3]; [8]): 0.00936 µg·h/mL
AUCinf, Geometric LSM, Reference (Day 1) Treatment A (CYP3A4 [3]; [8]): 0.01028 µg·h/mL
Cmax, Geometric LSM, Reference (Day 1) Treatment A (CYP3A4 [3]; [8]): 0.004038 µg/mL
AUC0-tz, Geometric LSM, Test (Day 14) Treatment D (CYP3A4 [3]; [9]): 0.07456 µg·h/mL
AUCinf, Geometric LSM, Test (Day 14) Treatment D (CYP3A4 [3]; [9]): 0.08372 µg·h/mL
Cmax, Geometric LSM, Test (Day 14) Treatment D (CYP3A4 [3]; [9]): 0.006657 µg/mL

Cc1ncc2n1-c1ccc(Cl)cc1C(c1ccccc1F)=NC2 [Midazolam, midazolam]
AUC0-tz, Ratio of Geometric LSMs (%) (CYP3A4 [3]): 878.43%
AUCinf, Ratio of Geometric LSMs (%) (CYP3A4 [3]): 892.81%
Cmax, Ratio of Geometric LSMs (%) (CYP3A4 [3]): 310.98%
increase in plasma exposure (AUCinf) when administered with relacorilant, relative to midazolam alone (CYP3A4 [3]; healthy subjects, once daily relacorilant 350 mg): 8 fold and > 8 fold
AUC(0-inf) (CYP3A4 [4]): 0.033 µg·h/mL
AUC(0-t) (CYP3A4 [4]): 0.0309 µg·h/mL
Cmax (CYP3A4 [4]): 0.0118 µg/mL

Cn1cc(S(=O)(=O)N2CCC3=Cc4c(cnn4-c4ccc(F)cc4)C[C@]3(C(=O)c3cc(C(F)(F)F)ccn3)C2)cn1 [relacorilant, (R)-(1-(4-fluorophenyl)-6-((1-methyl-1H-pyrazol-4-yl)sulfonyl)-4,4a,5,6,7,8-hexahydro-1H-pyrazolo[3,4-g]isoquinolin-4a-yl)(4-(trifluoromethyl)pyridine-2-yl)methanone]
IC50 (CYP3A4 [5]): 1.32 µM
IC50 (CYP2C8 [6]): 0.21 µM
inhibition of CYP2C8 in vivo (CYP2C8 [2]; healthy subjects, once daily relacorilant 350 mg, probe pioglitazone): does not inhibit
